The values that follow come from ChEMBL document CHEMBL1139279, “3,4-Disubstituted indole acylsulfonamides: a novel series of potent and selective human EP3 receptor antagonists” (Bioorg Med Chem Lett, 2009).

Series [1] can be described thus: Metabolic stability in human liver microsomes at 5 uM after 30 mins. The format is ADME, Microsome. The conditions noted are these: read-out: Activity. On the technique in general: Liver microsomes are a subcellular fraction often used to study metabolism.
In series [2] the test system is Liver microsomes. In words: Metabolic stability in rat liver microsomes at 5 uM after 30 mins. The format is ADME, Microsome. The settings on record: 0.5 h.
Series [3] has as its target T1, Prostaglandin E2 receptor EP3 subtype (Homo sapiens, UniProt P43115).
T1 sequence (P43115 whole entry): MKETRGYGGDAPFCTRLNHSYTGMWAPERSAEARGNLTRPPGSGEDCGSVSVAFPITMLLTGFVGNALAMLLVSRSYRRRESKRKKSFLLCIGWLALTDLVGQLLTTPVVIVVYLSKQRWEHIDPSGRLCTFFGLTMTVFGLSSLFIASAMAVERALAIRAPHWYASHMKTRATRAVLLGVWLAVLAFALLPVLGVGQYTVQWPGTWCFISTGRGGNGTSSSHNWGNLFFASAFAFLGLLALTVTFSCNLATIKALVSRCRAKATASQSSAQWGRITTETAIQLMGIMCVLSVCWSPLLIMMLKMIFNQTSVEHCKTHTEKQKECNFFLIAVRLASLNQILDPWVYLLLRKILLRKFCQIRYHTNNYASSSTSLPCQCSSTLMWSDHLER
Kind of series: Displacement of [3H]PGE2 from human EP3 receptor. For orientation: Loss of bound radioactivity is the signal in a displacement assay; it reports binding, not function.

The target of series [4] is T1, Prostaglandin E2 receptor EP3 subtype. In words: Displacement of [3H]PGE2 from human EP3 receptor in presence of 10% human serum.
The species named for series [5] is Homo sapiens. In words: Selectivity ratio of IC50 for human FP receptor to IC50 for human EP3 receptor.
The species named for series [6] is Homo sapiens. In words: Selectivity ratio of IC50 for human EP2 receptor to IC50 for human EP3 receptor.
The species named for series [7] is Rattus norvegicus. In words: Ex vivo inhibition of platelet aggregation in rat platelet-rich plasma. The format is functional, organism-based.
Series [8] is filed under the species Homo sapiens. In words: Selectivity ratio of IC50 for human EP4 receptor to IC50 for human EP3 receptor.
For series [9], the species on record is Homo sapiens. In words: Selectivity ratio of IC50 for human EP1 receptor to IC50 for human EP3 receptor.
For series [10], the species on record is Homo sapiens. In words: Selectivity ratio of IC50 for human IP receptor to IC50 for human EP3 receptor.
The target in series [11] is T1, Prostaglandin E2 receptor EP3 subtype. In words: Antagonist activity at human EP3 receptor assessed as cAMP production by cell-based assay. The format is functional.
Series [12] deals with T2, Prostaglandin E2 receptor EP3 subtype (Mus musculus, UniProt P30557).
T2 sequence (P30557 whole entry): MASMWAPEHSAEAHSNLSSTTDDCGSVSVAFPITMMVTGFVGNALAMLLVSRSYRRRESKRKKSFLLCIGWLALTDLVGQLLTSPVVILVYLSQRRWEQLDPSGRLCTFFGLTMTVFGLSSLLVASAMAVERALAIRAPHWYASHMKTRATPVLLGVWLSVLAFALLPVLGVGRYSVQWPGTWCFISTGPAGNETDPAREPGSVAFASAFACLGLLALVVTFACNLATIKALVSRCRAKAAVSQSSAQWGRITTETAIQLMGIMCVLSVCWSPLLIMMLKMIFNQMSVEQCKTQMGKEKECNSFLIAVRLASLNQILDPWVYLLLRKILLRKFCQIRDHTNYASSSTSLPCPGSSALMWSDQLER
In words: Displacement of [3H]PGE2 from mouse EP3 receptor.

As to `O=C(COc1cccc2[nH]cc(S(=O)(=O)c3ccc(Cl)cc3Cl)c12)NS(=O)(=O)c1cc(Cl)c(Cl)s1`, the remaining at 0.5 h, 5 µM in [1] came to 79%. The molecule further gave an Activity in [2] of 72%.

The IC50 is the concentration at which inhibition is half-maximal. With `O=C(COc1cccc2[nH]cc(S(=O)(=O)c3nc[nH]n3)c12)NS(=O)(=O)c1cc(Cl)c(Cl)s1`, the IC50 in series [3] was 236 nM.

For `Cn1c(Sc2c[nH]c3cccc(OCC(=O)NS(=O)(=O)c4cc(Cl)c(Cl)s4)c23)nc2ccccc21`, the fold shift in [4] worked out at 10.5. The IC50 in [3] was determined as 2.5 nM.

Regarding `Cc1ccc(S(=O)(=O)c2c[nH]c3cccc(OCC(=O)NS(=O)(=O)c4cc(Cl)c(Cl)s4)c23)c(C)c1`, the fold shift in series [4] is 33.2. In [3], this molecule returned an IC50 of 5.7 nM.

As to `O=C(COc1cccc2[nH]cc(S(=O)(=O)c3ccc4ccccc4c3)c12)NS(=O)(=O)c1cccc(Cl)c1`, the IC50 in [3] amounted to 5.9 nM.

As for `O=C(COc1cccc2[nH]cc(Sc3ccc(Cl)c(Cl)c3)c12)NS(=O)(=O)c1cc(Cl)c(Cl)s1`, the fold shift in [4] was found to be 1.1. Besides, the Ratio IC50 in [5] was determined as 596; in series [6], 950; in series [8], 1770; in series [9] it was 10800; in [10], 4480. Further, the IC50 in [3] was 1.3 nM; in series [7], 358 nM; in series [11] it was 0.3 nM; in series [12], 15.5 nM. In addition, the remaining at 0.5 h, 5 µM in series [1] was determined as 46%. In addition, the Activity in series [2] was 74%.

On to `O=C(COc1cccc2[nH]cc(S(=O)(=O)c3ccc(Cl)cc3)c12)NS(=O)(=O)c1cc(Cl)c(Cl)s1`, for which the remaining at 0.5 h, 5 µM in [1] stood at 75%. In addition, in [2], the Activity amounted to 98%.

Turning to `Cc1ccc(Sc2c[nH]c3cccc(OCC(=O)NS(=O)(=O)c4cc(Cl)c(Cl)s4)c23)c(C)c1`, the fold shift in series [4] stood at 5.2. Besides, the Ratio IC50 in series [5] came out at 401; in series [6], 1290; in series [8] it was 1860; in series [9] it was 13100; in [10], 31600. Moreover, in series [3], the 50% inhibitory concentration (IC50) stood at 1.3 nM.

Take `O=C(COc1cccc2[nH]cc(S(=O)(=O)c3ccc4ccccc4n3)c12)NS(=O)(=O)c1cc(Cl)c(Cl)s1`: in series [1], the remaining at 0.5 h, 5 µM was 60%. Besides, the Activity in [2] was found to be 68%.

For the molecule `O=C(COc1cccc2[nH]cc(Sc3ccc(Cl)cc3Cl)c12)NS(=O)(=O)c1cc(Cl)c(Cl)s1`, the fold shift in series [4] turned out to be 0.2. Also, the Ratio IC50 came out at 2030 in series [5]; 6230 in series [6]; 8880 in series [8]; 3520 in series [9]; 3350 in [10]. The same molecule showed an IC50 in series [3] of 27.6 nM. The remaining at 0.5 h, 5 µM in series [1] was 37%. In addition, the Activity in series [2] is given as 0%.

Take `O=C(COc1cccc2[nH]cc(Sc3ccc4ccccc4n3)c12)NS(=O)(=O)c1cc(Cl)c(Cl)s1`: the remaining at 0.5 h, 5 µM in series [1] stood at 23%. This molecule displayed an Activity in [2] of 35%.

Take `O=C(COc1cccc2[nH]cc(Sc3ccccc3Cl)c12)NS(=O)(=O)c1cc(Cl)c(Cl)s1`: the fold shift in series [4] is 5.8. In addition, the IC50 in series [3] amounted to 13.7 nM.

Consider `O=C(COc1cccc2[nH]cc(Sc3ccc4ccccc4c3)c12)NS(=O)(=O)c1cccc(Cl)c1`, for which, in series [4], the fold shift is 2.2. In addition, the Ratio IC50 was 1030 in series [5]; 1090 in series [6]; 1360 in [8]; 12300 in [9]; 1300 in series [10]. Besides, the IC50 in series [3] was found to be 2 nM.

As to `COc1ccc(Sc2c[nH]c3cccc(OCC(=O)NS(=O)(=O)c4cc(Cl)c(Cl)s4)c23)cc1`, the fold shift in series [4] was 22.6. In addition, the IC50 in series [3] came to 0.5 nM.

Regarding `O=C(COc1cccc2[nH]cc(S(=O)(=O)c3ccc(F)cc3Cl)c12)NS(=O)(=O)c1cc(Cl)c(Cl)s1`, the fold shift in series [4] amounted to 10.7. In [3], this molecule returned an IC50 of 20.2 nM.

Take `O=C(COc1cccc2[nH]cc(Sc3ccc(Cl)cc3)c12)NS(=O)(=O)c1cc(Cl)c(Cl)s1`: in [1], the remaining at 0.5 h, 5 µM is 52%. Also, in [2], the Activity was found to be 14%.

Regarding `Cn1nnnc1Sc1c[nH]c2cccc(OCC(=O)NS(=O)(=O)c3cc(Cl)c(Cl)s3)c12`, in series [4], the fold shift is 58.3. For the same molecule, the IC50 in series [3] was found to be 8.2 nM.

Take `COc1ccc(S(=O)(=O)NC(=O)COc2cccc3[nH]cc(S(=O)(=O)c4ccc5ccccc5c4)c23)cc1`: the IC50 in [3] is 544 nM.

Consider `O=C(COc1cccc2[nH]cc(Sc3nc4ccccc4s3)c12)NS(=O)(=O)c1cc(Cl)c(Cl)s1`, for which the fold shift in series [4] is 9.8. For the same molecule, the Ratio IC50 in series [5] amounted to 300; in series [6] it was 1660; in [8] it was 2390; in series [10] it was 1060. The molecule further showed a concentration for half-maximal inhibition (IC50) in series [3] of 7.6 nM.

The molecule `COc1ccc(S(=O)(=O)c2c[nH]c3cccc(OCC(=O)NS(=O)(=O)c4cc(Cl)c(Cl)s4)c23)cc1OC` registered an IC50 in series [3] of 11.4 nM.

Turning to `O=C(COc1cccc2[nH]cc(S(=O)(=O)c3ccc(Cl)c(Cl)c3)c12)NS(=O)(=O)c1cc(Cl)c(Cl)s1`, the fold shift in [4] amounted to 3.6. In addition, the Ratio IC50 came out at 384 in series [5]; 1450 in [6]; 4220 in series [8]; 5190 in series [9]; 2710 in [10]. The IC50 in series [3] is 4.7 nM; in series [7] it was 136 nM; in series [11] it was 1 nM; in series [12] it was 2 nM. Also, in series [1], the remaining at 0.5 h, 5 µM is 69.7%. This molecule also showed an Activity in series [2] of 68.8%.

The molecule `Cn1nnnc1S(=O)(=O)c1c[nH]c2cccc(OCC(=O)NS(=O)(=O)c3cc(Cl)c(Cl)s3)c12` had an IC50 in series [3] of 88.4 nM.

For the molecule `Cc1nnc(Sc2c[nH]c3cccc(OCC(=O)NS(=O)(=O)c4cc(Cl)c(Cl)s4)c23)s1`, the IC50 in series [3] was found to be 36.7 nM.

With `COc1ccccc1Sc1c[nH]c2cccc(OCC(=O)NS(=O)(=O)c3cc(Cl)c(Cl)s3)c12`, in [4], the fold shift amounted to 13.2. This molecule also displayed an IC50 in series [3] of 24 nM.

Regarding `O=C(COc1cccc2[nH]cc(Sc3ccc4ccccc4c3)c12)NS(=O)(=O)c1ccccc1Cl`, the fold shift in series [4] was 48.7. Also, the IC50 in series [3] was found to be 1.4 nM.

Turning to `O=C(COc1cccc2[nH]cc(Sc3ccc4ccccc4c3)c12)NS(=O)(=O)c1cccs1`, the fold shift in series [4] turned out to be 27.5. Moreover, the IC50 in series [3] was found to be 3 nM.

`NC(=O)Cc1ccc(S(=O)(=O)c2c[nH]c3cccc(OCC(=O)NS(=O)(=O)c4cc(Cl)c(Cl)s4)c23)cc1`: in series [4], the fold shift was determined as 5. Moreover, the IC50 in series [3] came out at 27.8 nM.

In [3], `COc1ccc(S(=O)(=O)c2c[nH]c3cccc(OCC(=O)NS(=O)(=O)c4cc(Cl)c(Cl)s4)c23)cc1` gave an IC50 of 30 nM.
